The values below come from patent publication US10611740B2, “Aryl dihydro-2H-benzo[b][1,4]oxazine sulfonamide and related compounds for use as agonists of RORγ and the treatment of disease” (Lycera Corporation, priority 2015, dated 2020).

One assay has as its target T1, RORγ-LBD (Homo sapiens, UniProt P51449).
T1 construct: made in house; host or cells: SF9 cells (baculovirus)
T1 sequence (P51449 269-508 limits assumed): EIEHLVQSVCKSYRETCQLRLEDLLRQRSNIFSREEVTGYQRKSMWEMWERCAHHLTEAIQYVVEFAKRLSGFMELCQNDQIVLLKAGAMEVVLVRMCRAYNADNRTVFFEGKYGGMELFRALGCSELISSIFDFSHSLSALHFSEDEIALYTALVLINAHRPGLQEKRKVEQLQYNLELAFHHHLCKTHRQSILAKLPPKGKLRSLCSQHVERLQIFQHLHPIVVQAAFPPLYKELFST
As to the kind of experiment: RORγ-Ligand Binding Domain (LBD) TR-FRET Assay.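 For TR-FRET Assay Max Response: 665/615 nm ratio relative to signal without ursolic acid or compound set at 100.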 In kind it is biochemical. In outline:
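TR-FRET read-out using a biotin-tagged SRC1 coactivator LXXLL peptide (200 nM final), with the antagonist ursolic acid present at 2 μM final. Receptor is His-tagged LBD expressed in SF9 cells, ~3 nM final in pH 7.0 Tris/KCl/EDTA/DTT/BSA buffer; compounds in 1% DMSO final.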
For orientation: Time-resolved FRET reads energy transfer from a long-lived donor to a nearby acceptor.

The target in the next assay is T2, Gal4-RORγ-LBD (Homo sapiens, UniProt P51449).
T2 construct: expressed in transfected cells; host or cells: HEK-293 cells (pcDNA3.1neo plasmid)
T2 sequence (P51449 269-508 limits assumed): T1 sequence (P51449 269-508 limits assumed)
As to the kind of experiment: Gal4-RORγ Luciferase Reporter Assay in HEK-293T Cells. The settings on record: HEK-293 cells. In kind it is cell-based. Put shortly: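 Luminescence read-out (One-Glo, 10 min RT) after overnight compound exposure at 37 °C in HEK-293 cells carrying Gal4-RORγ-LBD plus a Gal4-luciferase reporter, in the presence of 2 μM ursolic acid. Max Response is the upper plateau from a 4-parameter logistic fit, normalized to untreated signal = 100.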
(Reporter assays use an easily measured gene product as a stand-in for the process of interest.)

Setting [1] is: luciferase reporter, with 2 μM ursolic acid.

Molecules are shown by their SMILES. pEC50: −log10 of the molar value.

`O=S(=O)(c1cccc(C(F)(F)F)c1)N1C[C@H](CC2(CO)COC2)Oc2ccc(-c3cc(F)cc(OC(F)F)c3)cc21` [Compound 49, (S)-(3-((6-(3-(difluoromethoxy)-5-fluorophenyl)-4-((3-(trifluoromethyl)phenyl)sulfonyl)-3,4-dihydro-2H-benzo[b][1,4]oxazin-2-yl)methyl)oxetan-3-yl)methanol]: at RORγ-LBD, the pEC50 is above 6.30 and the “TR-FRET Assay Max Response” value is “** (The symbol “**” indicates a value in the range of greater than 90 to 150)”. Besides, at Gal4-RORγ-LBD (2 μM ursolic acid), the pEC50 was above 6.30 and the “Gal4-RORγ Assay Max Response” value is recorded as “** (The symbol “**” indicates a value in the range of greater than 90 to 150)”.
Regarding `O=C(NC[C@H]1CN(S(=O)(=O)c2cccc(C(F)(F)F)c2)c2cc(-c3cc(F)ccc3F)ccc2O1)c1cocn1` [Compound 30AJ, (S)-N-((6-(2,5-difluorophenyl)-4-((3-(trifluoromethyl)phenyl)-sulfonyl)-3,4-dihydro-2H-benzo[b][1,4]oxazin-2-yl)methyl)oxazole-4-carboxamide], on RORγ-LBD, the pEC50 is above 6.30 and the “TR-FRET Assay Max Response” value is given as “**** (The symbol “****” indicates a value greater than 200)”. Moreover, at Gal4-RORγ-LBD (setting [1]), the pEC50 was above 6.30 and the “Gal4-RORγ Assay Max Response” value was “** (The symbol “**” indicates a value in the range of greater than 90 to 150)”.
Take `O=C(O)CC[C@H]1CN(S(=O)(=O)c2cccc(C(F)(F)F)c2)c2cc(-c3ccccc3Cl)ccc2O1` [Compound 2A, (S)-3-(6-(2-chlorophenyl)-4-((3-(trifluoromethyl)phenyl)-sulfonyl)-3,4-dihydro-2H-benzo[b][1,4]oxazin-2-yl)propanoic acid]: on RORγ-LBD, the pEC50 is above 6.30 and the “TR-FRET Assay Max Response” value is reported as “*** (The symbol “***” indicates a value in the range of greater than 150 to 200)”. In addition, at Gal4-RORγ-LBD (setting [1]), the pEC50 is above 6.30 and the “Gal4-RORγ Assay Max Response” value is “** (The symbol “**” indicates a value in the range of greater than 90 to 150)”.
Regarding `CC(C)(C[C@H]1CN(S(=O)(=O)c2cccc(C(F)(F)F)c2)c2cc(-c3cc(Cl)cc(C(F)(F)F)c3)ccc2O1)C(=O)O` [Compound 32AB, (S)-3-(6-(3-chloro-5-(trifluoromethyl)phenyl)-4-((3-(trifluoromethyl)phenyl)sulfonyl)-3,4-dihydro-2H-benzo[b][1,4]oxazin-2-yl)-2,2-dimethylpropanoic acid], on RORγ-LBD, the pEC50 was above 6.30 and the “TR-FRET Assay Max Response” value is “*** (The symbol “***” indicates a value in the range of greater than 150 to 200)”. On Gal4-RORγ-LBD (2 μM ursolic acid), the pEC50 is above 6.30 and the “Gal4-RORγ Assay Max Response” value is recorded as “** (The symbol “**” indicates a value in the range of greater than 90 to 150)”.
With `CC(=O)N[C@H]1C[C@H](C[C@H]2CN(S(=O)(=O)c3cccc(C(F)(F)F)c3)c3cc(-c4cc(F)ccc4F)ccc3O2)C1` [Compound 60E, N-((1S,3r)-3-(((S)-6-(2,5-difluorophenyl)-4-((3-(trifluoro-methyl)phenyl)sulfonyl)-3,4-dihydro-2H-benzo[b][1,4]oxazin-2-yl)methyl)cyclobutyl)-acetamide], on RORγ-LBD, the negative logarithm of the EC50 (pEC50) is above 6.30 and the “TR-FRET Assay Max Response” value is “*** (The symbol “***” indicates a value in the range of greater than 150 to 200)”. At Gal4-RORγ-LBD (2 μM ursolic acid), the pEC50 is above 6.30 and the “Gal4-RORγ Assay Max Response” value is “** (The symbol “**” indicates a value in the range of greater than 90 to 150)”.
`O=C(NC[C@H]1CN(S(=O)(=O)c2cccc(C(F)(F)F)c2)c2cc(-c3cccc(F)c3Cl)ccc2O1)C1CC1` [Compound 30CF, (S)-N-((6-(2-chloro-3-fluoro-phenyl)-4-((3-(trifluoromethyl)-phenyl)sulfonyl)-3,4-dihydro-2H-benzo[b][1,4]oxazin-2-yl)methyl)cyclopropanecarbox-amide]: on RORγ-LBD, the pEC50 was above 6.30 and the “TR-FRET Assay Max Response” value was “**** (The symbol “****” indicates a value greater than 200)”. Further, at Gal4-RORγ-LBD (2 μM ursolic acid), the pEC50 is above 6.30 and the “Gal4-RORγ Assay Max Response” value was “** (The symbol “**” indicates a value in the range of greater than 90 to 150)”.

By pEC50 is commonly meant −log10 of the EC50, conventionally taken in molar units. A low value points to a high EC50.
